Earlier results on 104 molecules are cited in the CATMoS acute toxicity set (Mansouri et al. 2021).

“And” between values parts separate entries of the source, which are not always exact repeats. Equal values may be shown once.

The data set in a line: rat acute oral toxicity. The note with it: in vivo. From the text: […]The data set underlying the modeling effort for this project was initially compiled by NICEATM and U.S. EPA’s CCTE. Briefly, LD50 data were collected from rat acute oral systemic toxicity tests, including limit tests, ranges/confidence intervals, and discrete LD50 values. The full data set included 21,200 LD50 entries for 15,688 substances. […] Data were reviewed to ensure that LD50 values with obvious errors in the extracted data such as unit conversion errors (e.g., comma and decimal separator misplacements) were either fixed or removed. After this review, 16,209 LD50 values remained. Many of the chemicals represented had multiple LD50 entries, requiring that a single representative value per Chemical Abstracts Service Registry Number (CASRN) identifier be defined to facilitate modeling efforts. Based on ATWG feedback and to define the representative LD50 as a protective value while accounting for the distribution across multiple LD50s, the median of the lowest quartile was computed using only discrete LD50 values (omitting limit test data and range and confidence interval data). A detailed summary of the data compilation is available online on the NICEATM webpage dedicated to the collaborative modeling project (NTP 2020).
[…][…] For categorical designations, limit test and range/confidence interval LD50 data were integrated wherever possible. As such, the number of chemicals with end point values/calls varies across the modeling end points (Table 3) based on whether chemicals had representative LD50 values and/or other data. If a chemical had both, the representative value was used to determine categorical calls rather than limit test data. Some data were useable only for certain end points and categories depending on the thresholds. For example, ranges that spanned multiple hazard categories were considered only for the binary (very toxic/nontoxic) end points and omitted from rendering a determination for hazard category assignment.
[…]The final data set comprising 11,992 chemicals was split into training and evaluation sets […], respectively. This process was performed semirandomly by ordering chemicals based on the five end points (categorical and continuous LD50 values) and partitioning every fourth record into the evaluation set accordingly. This approach was taken to ensure an equivalent distribution of the LD50 values and the different hazard categories between the training and the evaluation sets without supervised sampling of the chemicals based on structures (Figure 1A). The sources of the chemical structures were also kept equivalent between the two sets, with chemical structures obtained from DSSTox, being the highest quality, representing over 75% of each set (Figure 1B).
As for `CCN(CC)Cc1nccn1-c1ccc([N+](=O)[O-])cc1C(=O)c1ccccc1Cl`, the median lethal dose (LD50) (in general, the dose expected to kill half of the subjects tested) is 1580 mg/kg. Regarding `C=CC(=O)N(CC)CC`, the LD50 was 1420 mg/kg.

As for `CN1C(C(=O)Nc2ccccn2)C(=O)c2sc(Cl)cc2S1(=O)=O` (centres undefined), the median lethal dose (LD50) was 5.73 mg/kg. Regarding `O=[N+]([O-])c1cnc(Cl)c([N+](=O)[O-])c1`, the LD50 was 50 mg/kg. `CCOC(C1=NCC(C)(C)CN1)c1ccc(OC)cc1` (centres undefined): the LD50 is 625 mg/kg. `COCCO[Si](CCCl)(OCCOC)OCCOC`: the LD50 is 878 mg/kg. Turning to `c1ccc(-c2ccc(CCOc3ncnc4ccccc34)cc2)cc1`, the LD50 is 1150 mg/kg. Turning to `C=CCc1ccccc1OCC(O)CNC(C)C` (centres undefined), the LD50 is 590 mg/kg. Take `CCCCCCCc1ccc(C)cc1O`: the LD50 was 3320 mg/kg. For the molecule `CNCCCC1(C#N)c2ccccc2CCc2ccccc21`, the LD50 was 889 mg/kg. Consider `CCC(C)C(CN(C)C)c1ccc(Cl)cc1Cl` (centres undefined), for which the median lethal dose (LD50) is 567 mg/kg. As to `N#CCCNCCC#N`, the LD50 is 2700 mg/kg.

`COc1ccc2c(c1)c(CC(=O)O)c(C)n2C(=O)c1ccc(Cl)cc1`: the 50% lethal dose (LD50) was 21 mg/kg. Consider `CN(Sc1ccc(F)cc1)C(=O)Oc1cccc2c1OC(C)(C)C2`, for which the LD50 is 25 mg/kg.

For `CCCC(=O)C1c2cccc(O)c2C(=O)c2c(O)cccc21`, the LD50 was 1580 mg/kg.

`CCOc1ccccc1OCC(O)CNCCNCC(O)COc1ccccc1OCC` (centres undefined): the median lethal dose (LD50) was 560 mg/kg.

Take `C=CC#CC(C)(C)O`: the LD50 was 600 mg/kg. As for `O=[N+]([O-])c1ccc(/C=N/NC(=S)N2CCCCC2)o1`, the 50% lethal dose (LD50) is 750 mg/kg. In the case of `C=Cc1ccc(CC)cn1`, the LD50 was 1230 mg/kg. `CS(=O)(=O)c1ccc(O)cc1`: the median lethal dose (LD50) was 3160 mg/kg. Consider `CCOC(=O)CN(C(=O)CCl)c1c(CC)cccc1CC`, for which the LD50 is 2300 mg/kg. Regarding `CCCCCCCCc1ccc(C(CBr)OCCCC)cc1` (centres undefined), the LD50 was 250 mg/kg.

Regarding `Cc1ccccc1-c1nnc(NN)s1`, the median lethal dose (LD50) was 120 mg/kg. On to `CCOC(=O)Nc1ccco1`, for which the LD50 was 1980 mg/kg. `OCCNCCOc1ccc(C(=C(c2ccccc2)C(F)(F)F)c2ccccc2)cc1`: the 50% lethal dose (LD50) was 1400 mg/kg. On to `OCP(CO)CO`, for which the LD50 is 178 mg/kg.

Turning to `Oc1c(Cl)cc2[nH]c(C(F)(F)F)nc2c1Cl`, the LD50 was 58 mg/kg.

On to `CC(=O)Nc1ccccc1`, for which the LD50 is 800 mg/kg. For `Cc1ccc(N)c(C)c1`, the LD50 was 1260 mg/kg. For `c1ccc(Nc2ccc3ccccc3c2)cc1`, the LD50 was 8730 mg/kg. On to `CN(Cc1ccc(Cl)cc1Cl)S(N)(=O)=O`, for which the median lethal dose (LD50) was 2350 mg/kg. On to `CCN1C(=O)c2ccccc2C1Nc1ccc(OCCN2CCCCC2)cc1` (centres undefined), for which the LD50 is 695 mg/kg. As to `CNC(=S)NCCSCc1nc[nH]c1C`, the LD50 was 1490 mg/kg. Turning to `COc1cc2c(cc1OC)C1Cc3ccc(OC)c(OC)c3CN1CC2` (centres undefined), the LD50 was 580 mg/kg. As for `O=c1ccc2cc(CCCCN3CCN(c4ccccc4)CC3)ccc2[nH]1`, the LD50 is 500 mg/kg. `CNC(=O)c1cnn(C(C)(C)C)c1C#N`: the median lethal dose (LD50) is 392 mg/kg. For the molecule `CC1(C)[C@@H](OC(=O)CCC(=O)O)CC[C@]2(C)[C@H]3C(=O)C=C4[C@@H]5C[C@@](C)(C(=O)O)CC[C@]5(C)CC[C@@]4(C)[C@]3(C)CC[C@@H]12`, the LD50 is 2450 mg/kg. As for `NC(N)=Nc1nc(CSCCC(N)=NS(N)(=O)=O)cs1`, the LD50 is 4050 mg/kg.

In the case of `O=C(O)COc1nn(Cc2ccccc2)c2ccccc12`, the LD50 is 1200 mg/kg. As to `CC(=O)C(/N=N/c1ccc(-c2ccc(/N=N/C(C(C)=O)C(=O)Nc3ccccc3)c(Cl)c2)cc1Cl)C(=O)Nc1ccccc1` (centres undefined), the LD50 was 2230 mg/kg. In the case of `CC(=O)OC1c2cccc(O)c2C(=O)c2c(O)cccc21`, the LD50 is 347 mg/kg.

With `C=C(OP(=O)(OCC)OCC)c1ccc(Cl)cc1Cl`, the LD50 is 1530 mg/kg. Take `O=P(CCCl)(OCCCl)OCCCl`: the 50% lethal dose (LD50) was 880 mg/kg.

Consider `NC1CCC(CC2CCC(N)CC2)CC1` (centres undefined), for which the LD50 was 1750 mg/kg. For `CNCC(O)c1cccc(NS(C)(=O)=O)c1` (centres undefined), the LD50 is 13 mg/kg. Take `O=C(OCCOC(=O)c1ccccc1)c1ccccc1`: the LD50 was 5340 mg/kg. In the case of `Clc1cccc(Cl)c1Nc1ncccn1`, the LD50 is 4720 mg/kg. On to `CN(C)CCN(Cc1cccs1)c1ccccn1`, for which the LD50 was 200 mg/kg. As to `Cc1ccc(C)c(C)c1C`, the 50% lethal dose (LD50) is 6410 mg/kg. For `CCOP(=S)(OCC)SCSc1ccc(Cl)c(Cl)c1`, the LD50 was 89 mg/kg. Regarding `CCN1CCCc2ccccc21`, the 50% lethal dose (LD50) was 1780 mg/kg. Regarding `CC[N+](CC)(CC)CCOC(=O)C(C1CCCC1)C1CCCC1`, the LD50 is 780 mg/kg. As for `CN(C)CCCn1c2ccccc2c(=O)c2c([N+](=O)[O-])cccc21`, the LD50 was 53.3 mg/kg. `CC1OC1(C)C` (centres undefined): the LD50 is 2640 mg/kg.

Take `CCOC(=O)C1=CN(C)C2CCCC(C)N2C1=O` (centres undefined): the LD50 is 378 mg/kg. Take `Cn1c(=O)c2c(ncn2CCCCCN2CCN(c3cccc(C(F)(F)F)c3)CC2)n(C)c1=O`: the LD50 is 660 mg/kg. For the molecule `CCN(CC)CCNC(=O)C(C)(C)Oc1ccc(Cl)cc1`, the LD50 is 300 mg/kg. In the case of `Oc1ccc2nc(C(F)(F)F)[nH]c2c1`, the LD50 is 41 mg/kg. In the case of `CCNC(=S)OC(C)C`, the LD50 is 568 mg/kg. In the case of `C=COCCOC`, the median lethal dose (LD50) was 3900 mg/kg. In the case of `FC(F)(F)c1nc2c(Cl)cccc2[nH]1`, the LD50 is 19.2 mg/kg. On to `CCOC(=O)C(C#N)C(=O)Cc1c(C)n(C(=O)c2ccc(Cl)cc2)c2ccc(OC)cc12` (centres undefined), for which the LD50 is 82 mg/kg. For `COP(=O)(OC)C(OC(C)=O)=C(Cl)Cl`, the LD50 is 300 mg/kg. `CN(C)C(=O)CN1C(=O)C2C3C=C(C(O)(c4ccccc4)c4ccccn4)C(C3=C(c3ccccc3)c3ccccn3)C2C1=O` (centres undefined): the LD50 was 5.9 mg/kg. Turning to `CCCN(CCC)CCc1cccc2c1CC(=O)N2`, the 50% lethal dose (LD50) is 396 mg/kg and 862 mg/kg.

Take `Oc1cc(Cl)c(Cl)c(Cl)c1-c1c(Cl)c(Cl)c(Cl)c(Cl)c1OCl`: the LD50 was 360 mg/kg. Regarding `CNCC1CCCCC1`, the median lethal dose (LD50) is 1410 mg/kg.

For the molecule `CCC(CO)(CO)CO`, the LD50 was 14100 mg/kg. With `COP(N)(=S)Oc1ccc(C(C)(C)C)cc1Cl` (centres undefined), the LD50 was 820 mg/kg.

`COc1ccc(C(=O)CCC(=O)O)c2ccoc12`: the LD50 is 1230 mg/kg. In the case of `Oc1cccc2cccnc12`, the LD50 is 1200 mg/kg. For `c1ccc(-c2ccc(C(c3ccccc3)n3ccnc3)cc2)cc1` (centres undefined), the LD50 was 1460 mg/kg. On to `OC(CNc1ccccn1)c1ccccc1` (centres undefined), for which the median lethal dose (LD50) is 756 mg/kg.

In the case of `O=c1c2ccccc2c2ccc3c4c(ccc1c24)c1ccc2c(=O)c4ccccc4c4nn3c1c24`, the LD50 is 13900 mg/kg.

In the case of `C=CC(OC(C)=O)OC(C)=O`, the LD50 was 35 mg/kg. Take `C[N+]1(CC2COC(c3ccccc3)(C3CCCCC3)O2)CCCCC1` (centres undefined): the LD50 was 494 mg/kg.

Take `CCCC(Cc1ccccc1)N1CCCC1` (centres undefined): the LD50 is 278 mg/kg and 157 mg/kg. As to `O=C(C(F)(F)F)C(F)(F)Cl`, the LD50 is 85 mg/kg. As to `Cc1ccc2c(-c3cccc(O)c3)nc(=O)n(C(C)C)c2c1`, the LD50 is 1600 mg/kg. Consider `CC(CN1c2ccccc2Sc2ccc(S(=O)(=O)N(C)C)cc21)N(C)C` (centres undefined), for which the LD50 was 1320 mg/kg.

As to `O=S(=O)(O)C(F)(F)F`, the LD50 was 1610 mg/kg. In the case of `CCO[Si](C)(C)CCl`, the LD50 is 1550 mg/kg. For `O=C(C(F)(F)Cl)C(F)(Cl)Cl`, the LD50 was 277 mg/kg. As to `CCN1CC(CCN2CCOCC2)C(c2ccccc2)(c2ccccc2)C1=O` (centres undefined), the LD50 was 261 mg/kg. For `C=C(Cl)C(Cl)CCl` (centres undefined), the LD50 is 341 mg/kg. For `C=CC1OCCO1`, the LD50 is 84.7 mg/kg. For `CC(C)(C)c1cc(C(=O)O)cc(C(C)(C)C)c1O`, the LD50 is 1410 mg/kg. With `CCOC(=O)Cc1[nH]nc2ccc(Cl)cc12`, the LD50 is 4800 mg/kg. `CCSP(=O)(CCl)SCC`: the LD50 was 35 mg/kg. Turning to `Cc1ncc(CSSCc2cnc(C)c(O)c2C)c(C)c1O`, the LD50 was 2150 mg/kg. As for `C=CC[C@@H]1C=C(C)C[C@H](C)C[C@H](OC)[C@H]2O[C@@](O)(C(=O)C(=O)N3CCCC[C@H]3C(=O)O[C@H](C(C)=C[C@@H]3CC[C@@H](O)[C@H](OC)C3)[C@H](C)[C@@H](O)CC1=O)[C@H](C)C[C@@H]2OC`, the LD50 was 134 mg/kg.

Consider `ClC=C(Cl)c1ccccc1`, for which the LD50 was 4000 mg/kg.

With `O=C(O)c1c(Cl)ccc(Cl)c1O`, the LD50 is 1560 mg/kg. Consider `CCN=c1nc(Cl)[nH]c(=NC(C)CC)[nH]1` (centres undefined), for which the LD50 is 3000 mg/kg. With `C=CCN1CCc2nc(N)sc2CC1`, the 50% lethal dose (LD50) was 403 mg/kg. As for `Cc1ccc2oc(=O)ccc2c1`, the LD50 is 1680 mg/kg. As for `CCOP(=S)(OC)SCN1C(=O)c2ccccc2C1=O` (centres undefined), the LD50 was 50 mg/kg.

Consider `N#CC(Cl)(Cl)CCl`, for which the LD50 was 200 mg/kg and 250 mg/kg. As to `Oc1cccc(Cl)c1-c1ccccc1`, the LD50 is 3500 mg/kg. For `Cc1cc(C)c(C2C(=O)c3ccccc3C2=O)c(C)c1`, the LD50 was 1000 mg/kg. Turning to `OCC1CCc2cc(C3CCCCC3)ccc21` (centres undefined), the LD50 is 295 mg/kg and 165 mg/kg.

As for `OCC1OC(n2cnc3c(S)ncnc32)C(O)C1O` (centres undefined), the LD50 is 900 mg/kg. On to `CC1=CC(=O)C(C)=C(C)C1=O`, for which the LD50 is 200 mg/kg.

Take `CCCc1ccc(C)cc1O`: the LD50 was 730 mg/kg.
